According to patent US6783949B1, “Processes for determining whether a test substance contains lipases or lipase inhibitors” (Aventis Pharma Deutschland GmbH, priority 1999, dated 2004):

Target: T1, lipases, preferably HSL (Rattus norvegicus, UniProt P15304)
T1 sequence (P15304 1-768 isoform P15304-2): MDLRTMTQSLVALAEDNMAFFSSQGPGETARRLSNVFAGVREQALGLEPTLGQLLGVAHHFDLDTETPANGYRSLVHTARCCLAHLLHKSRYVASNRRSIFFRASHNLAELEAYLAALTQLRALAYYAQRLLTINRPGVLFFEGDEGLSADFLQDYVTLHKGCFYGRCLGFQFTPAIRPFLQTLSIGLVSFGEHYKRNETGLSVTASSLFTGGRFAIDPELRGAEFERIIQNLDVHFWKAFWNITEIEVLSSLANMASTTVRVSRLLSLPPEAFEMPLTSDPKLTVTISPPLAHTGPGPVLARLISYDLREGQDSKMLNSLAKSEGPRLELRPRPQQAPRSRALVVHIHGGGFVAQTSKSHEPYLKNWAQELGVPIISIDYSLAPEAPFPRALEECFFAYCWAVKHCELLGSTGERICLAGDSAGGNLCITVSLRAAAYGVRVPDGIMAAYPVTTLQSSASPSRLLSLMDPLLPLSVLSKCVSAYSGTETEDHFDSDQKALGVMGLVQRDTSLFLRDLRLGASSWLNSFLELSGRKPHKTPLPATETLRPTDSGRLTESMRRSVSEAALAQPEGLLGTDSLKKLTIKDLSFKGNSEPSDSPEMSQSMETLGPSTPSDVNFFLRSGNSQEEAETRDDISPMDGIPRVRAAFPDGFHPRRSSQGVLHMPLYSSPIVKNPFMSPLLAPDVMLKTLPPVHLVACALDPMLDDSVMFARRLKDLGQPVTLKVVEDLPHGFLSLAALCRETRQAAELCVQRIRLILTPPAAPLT
Assay: Synthesized NBD-acylglycerides as substrates of lipases
Assay type: biochemical

Row | Activity as substrate of lipases | SMILES
1 | decrease in activity | CCCCCC(=O)OCC(COC(=O)CCCCCCCCCCCNc1ccc([N+](=O)[O-])c2nonc12)OC(=O)CCCCC (centres unmarked) [Compound (5), 2-Hexanoyloxy-3-[12-(7-nitrobenzo[1,2,5]oxadiazol-4-ylamino)-dodecanoyloxy]propyl hexanoate]
2 | decrease in activity | CCCCCCCCCCCCCCCC(=O)OCC(COC(=O)CCCCCCCCCCCNc1ccc([N+](=O)[O-])c2nonc12)OC(C)=O (centres unmarked) [Compound (7), 2-Acetyloxy-3-[12-(7-nitrobenzo[1,2,5]oxadiazol-4-ylamino)-dodecanoyloxy]propyl hexadecanoate]
